Experimental findings from US10596092B2, “Deodorant composition and a method for preparing thereof” (priority 2017, dated 2020) are described below.

This series in a line: Neutralization of odoriferous acid by GC-FID. Type of series: physicochemical. As to the method:
Hexamine, which is weakly basic in nature, was incubated with two commonly known odoriferous acids, i.e., 3-hydroxy-3-methyl-hexanoic acid (HMHA) and hexanoic acid, and the potential neutralization effect was studied by using a Gas Chromatograph with a Flame Ionization Detector (GC-FID). The chromatograms showing the neutralization of 3-hydroxy-3-methyl-hexanoic acid (HMHA) by sodium hydroxide and hexamine; and the neutralization of hexanoic acid by hexamine are shown in FIGS. 1 and 2, respectively.

As for `C1N2CN3CN1CN(C2)C3` [hexamine], the “neutralization of odoriferous acid” value was “capable of neutralizing the tested odoriferous acids” (FIG. 1) and “capable of neutralizing the tested odoriferous acids” (FIG. 2).
